Source: patent US10517889B2, “Modulators of SMAD7 expression” (Ionis Pharmaceuticals, Inc., priority 2017, dated 2019)
Strand notation (5' to 3'): a small letter for the sugar, then the base; units joined by * are phosphorothioate-linked, units joined directly phosphodiester-linked; [ ] holds rarer units or linkages, { } end groups; capitals alone tell only the bases. k = constrained ethyl (cEt); [5mC] = 5-methylcytosine; d = 2'-deoxy (DNA)

tested on: human SMAD7 mRNA; assay: Antisense inhibition of human SMAD7 mRNA expression in Hep3B cells by 3-10-3 cEt gapmers, 10,000 nM, electroporation (Example 2); assay type: cell-based; settings: Hep3B cells, 10,000 nM antisense oligonucleotide, electroporation, approximately 24 hours, RT-PCR primer probe set RTS5062, relative to untreated control cells
Description: Antisense oligonucleotides were designed to target human SMAD7 mRNA and were tested for their effects on SMAD7 mRNA expression in vitro. The antisense oligonucleotides were tested in a series of experiments that had similar culture conditions, as described below. ION 771576, described in the studies above and which is a 5-10-5 MOE gapmer, was also included in these assays. Cultured Hep3B cells at a density of 20,000 cells per well were transfected using electroporation with 10,000 nM antisense oligonucleotide. After a treatment period of approximately 24 hours, RNA was isolated from the cells and SMAD7 mRNA levels were measured by quantitative real-time PCR. Primer probe set RTS5062 was used to measure human SMAD7 mRNA levels. SMAD7 mRNA levels were adjusted according to total RNA content, as measured by RIBOGREEN®. Results are presented as percent inhibition of SMAD7 mRNA expression, relative to untreated control cells.
The newly designed chimeric antisense oligonucleotides in the Tables below were designed as 3-10-3 cEt gapmers. The gapmers are 16 nucleosides in length, wherein the central gap segment comprises often 2′-deoxynucleosides and is flanked by wing segments on the 5′ direction and the 3′ direction comprising three nucleosides each. Each nucleoside in the 5′ wing segment and each nucleoside in the 3′ wing segment has a cEt sugar modification. The internucleoside linkages throughout each gapmer are phosphorothioate (P═S) linkages. All cytosine residues throughout each gapmer are 5-methylcytosines.
“Start site” indicates the 5′-most nucleoside to which the gapmer is targeted in the human gene sequence. “Stop site” indicates the 3′-most nucleoside to which the gapmer is targeted human gene sequence. […] Some of the oligonucleotides presented were complementary to SMAD7 mRNA sequences RefSeqNo. NM_001190821.1 (designated herein as SEQ ID NO: 3) or RefSeqNo. NM_001190822.1 (designated herein as SEQ ID NO: 4), and are presented in a separate table shown below.

Substance | % Inhibition [%]
790507 (kA*kA*kG*dA*dA*dG*dT*dT*dG*dG*dG*dA*dA*kT*k[5mC]*kT; antisense) [compound 790507] | 0
790513 (k[5mC]*kA*k[5mC]*d[5mC]*dA*dG*d[5mC]*dT*dG*dA*d[5mC]*dT*d[5mC]*kT*kT*kG; antisense) [compound 790513] | 10
790531 (kT*kG*k[5mC]*dT*dG*dA*dT*dG*dA*dA*d[5mC]*dT*dG*kG*k[5mC]*kG; antisense) [compound 790531] | 8
790533 (kG*kG*k[5mC]*dT*dA*d[5mC]*d[5mC]*dG*dG*d[5mC]*dT*dG*dT*kT*kG*kA; antisense) [compound 790533] | 16

same assay, conditions: Hep3B cells, electroporation with 10,000 nM antisense oligonucleotide, approximately 24 hours, SMAD7 mRNA by RT-PCR (RTS5062), relative to untreated control cells

Substance | % Inhibition [%]
790464 (kA*kG*k[5mC]*dG*dA*dA*d[5mC]*dA*dT*dG*dA*d[5mC]*d[5mC]*kT*k[5mC]*k[5mC]; antisense) [compound 790464] | 58
790465 (kA*kA*kG*dG*dA*dG*d[5mC]*dG*dA*dA*d[5mC]*dA*dT*kG*kA*k[5mC]; antisense) [compound 790465] | 54
790479 (kG*kG*k[5mC]*dA*dG*d[5mC]*dA*dG*dG*dA*dG*dG*d[5mC]*kA*k[5mC]*kG; antisense) [compound 790479] | 43
790485 (k[5mC]*kA*k[5mC]*d[5mC]*dT*dG*dA*dA*d[5mC]*dA*d[5mC]*dT*dT*kT*kG*k[5mC]; antisense) [compound 790485] | 26
790492 (kT*k[5mC]*k[5mC]*d[5mC]*dG*dT*dA*dA*dG*dA*dT*dT*d[5mC]*kA*k[5mC]*kA; antisense) [compound 790492] | 38
790493 (kG*kT*kT*dG*dA*dT*d[5mC]*dT*dT*d[5mC]*d[5mC]*d[5mC]*dG*kT*kA*kA; antisense) [compound 790493] | 0
790496 (kG*k[5mC]*kA*dG*dA*dG*dT*d[5mC]*dG*dG*d[5mC]*dT*dA*kA*kG*kG; antisense) [compound 790496] | 42
790497 (kG*kT*kT*d[5mC]*dG*d[5mC]*dA*dG*dA*dG*dT*d[5mC]*dG*kG*k[5mC]*kT; antisense) [compound 790497] | 23
790510 (k[5mC]*k[5mC]*k[5mC]*d[5mC]*dT*dG*dA*dG*dG*dT*dA*dG*dA*kT*k[5mC]*kA; antisense) [compound 790510] | 33
790515 (k[5mC]*kG*kT*d[5mC]*dA*dG*d[5mC]*dT*dG*dG*dA*dT*dG*k[5mC]*k[5mC]*kG; antisense) [compound 790515] | 26
790532 (kG*k[5mC]*kA*d[5mC]*dG*dG*dG*d[5mC]*dA*dG*d[5mC]*dT*dG*k[5mC]*kT*kG; antisense) [compound 790532] | 0

same assay, conditions: Hep3B cells, electroporation with 10,000 nM antisense oligonucleotide, approximately 24 hours, primer probe set RTS5062, relative to untreated control cells

Substance | % inhibition of SMAD7 mRNA expression [%] | % Inhibition [%]
790468 (kG*k[5mC]*kG*dA*dG*dG*dA*dG*dA*dA*dA*dA*dG*kT*k[5mC]*kG; antisense) [compound 790468] | 0 | –
790489 (k[5mC]*kT*k[5mC]*dT*dT*dG*dA*d[5mC]*dT*dT*d[5mC]*d[5mC]*dG*kA*kG*kG; antisense) [compound 790489] | 0 | –
790543 (kT*kG*kA*dA*dA*dA*dG*d[5mC]*dA*dA*dG*d[5mC]*dA*k[5mC]*kT*k[5mC]; antisense) [compound 790543] | – | 23
790545 (kA*kA*kA*dG*dA*dG*dT*dT*dT*dG*d[5mC]*dA*dT*kG*kA*kA; antisense) [compound 790545] | – | 24
790613 (k[5mC]*kA*kT*dT*dT*dA*dA*dA*d[5mC]*d[5mC]*dT*dT*dT*kG*kT*kA; antisense) [compound 790613] | 0 | –
790617 (k[5mC]*kT*kA*d[5mC]*dA*dA*dT*dG*d[5mC]*dT*dA*dA*dA*kT*kT*kT; antisense) [compound 790617] | – | 0
790620 (kT*kA*kA*dT*dA*dA*dA*dT*d[5mC]*dT*d[5mC]*dA*dG*kG*kT*kT; antisense) [compound 790620] | – | 30
790621 (kG*kT*kG*d[5mC]*dA*dT*d[5mC]*dT*dT*dT*dT*d[5mC]*dT*kT*kT*kA; antisense) [compound 790621] | 0 | –
790623 (kG*k[5mC]*kA*dT*dT*dT*dA*dT*dA*dT*dT*dA*dA*kA*kG*k[5mC]; antisense) [compound 790623] | 0 | –
790626 (kG*kA*kT*dA*dA*d[5mC]*dA*d[5mC]*d[5mC]*d[5mC]*dA*dT*dA*kG*kA*kA; antisense) [compound 790626] | 0 | –
790630 (kG*kG*kA*dA*d[5mC]*dA*dT*dA*dA*dA*d[5mC]*dT*d[5mC]*k[5mC]*kT*kT; antisense) [compound 790630] | – | 0

same assay, conditions: SMAD7 mRNA, Hep3B cells, 10,000 nM antisense oligonucleotide, electroporation, approximately 24 hours, primer probe set RTS5062, relative to untreated control cells

Substance | % Inhibition [%]
790469 (k[5mC]*kG*kG*dA*d[5mC]*dG*dA*dG*d[5mC]*dG*d[5mC]*dA*dG*kA*kT*k[5mC]; antisense) [compound 790469] | 41
790471 (k[5mC]*kG*k[5mC]*d[5mC]*dG*dG*dG*d[5mC]*dG*d[5mC]*dA*d[5mC]*dG*kG*k[5mC]*kT; antisense) [compound 790471] | 4
790484 (kG*kA*kA*d[5mC]*dA*d[5mC]*dT*dT*dT*dG*d[5mC]*dA*d[5mC]*kA*kG*k[5mC]; antisense) [compound 790484] | 62
790486 (kT*kG*k[5mC]*d[5mC]*dT*dG*dA*dG*dA*dT*d[5mC]*d[5mC]*dG*kG*k[5mC]*k[5mC]; antisense) [compound 790486] | 23
790491 (kG*kT*kA*dA*dG*dA*dT*dT*d[5mC]*dA*d[5mC]*dA*dG*k[5mC]*kA*kA; antisense) [compound 790491] | 56
790498 (k[5mC]*kT*k[5mC]*dT*dA*dG*dT*dT*d[5mC]*dG*d[5mC]*dA*dG*kA*kG*kT; antisense) [compound 790498] | 11
790508 (k[5mC]*kA*k[5mC]*d[5mC]*dA*d[5mC]*dG*d[5mC]*dA*d[5mC]*d[5mC]*dA*dG*kT*kG*kT; antisense) [compound 790508] | 0
790516 (kG*kT*kA*dA*d[5mC]*dT*dG*d[5mC]*dT*dG*d[5mC]*dG*dG*kT*kT*kG; antisense) [compound 790516] | 45
790519 (k[5mC]*kT*kG*dG*dA*dG*dT*d[5mC]*d[5mC]*dG*dG*dG*dT*kT*kG*kT; antisense) [compound 790519] | 8
790521 (kG*kG*k[5mC]*dT*dG*dT*dA*d[5mC]*dG*d[5mC]*d[5mC]*dT*dT*k[5mC]*kT*k[5mC]; antisense) [compound 790521] | 19
790529 (kA*kG*k[5mC]*dT*dG*dA*dT*d[5mC]*dT*dG*d[5mC]*dA*d[5mC]*kG*kG*kT; antisense) [compound 790529] | 65
790537 (kA*kG*k[5mC]*dA*dG*d[5mC]*dA*dA*dA*dG*dT*dA*dG*kT*kT*kT; antisense) [compound 790537] | 27
790604 (kT*kA*k[5mC]*dG*dA*dG*dT*dG*dT*dA*dT*dG*dA*kG*kT*kT; antisense) [compound 790604] | 30
790605 (kA*kT*k[5mC]*dA*dT*dA*d[5mC]*dG*dA*dG*dT*dG*dT*kA*kT*kG; antisense) [compound 790605] | 32
790609 (kG*kT*k[5mC]*dT*dA*dA*dA*d[5mC]*dA*dT*dG*d[5mC]*dT*k[5mC]*kA*kT; antisense) [compound 790609] | 40
790611 (kG*k[5mC]*kT*dT*dA*dT*dG*dT*dT*dA*dA*dA*dG*kT*k[5mC]*kT; antisense) [compound 790611] | 59
790612 (kT*kA*kA*dA*d[5mC]*d[5mC]*dT*dT*dT*dG*dT*dA*dG*kT*kT*kA; antisense) [compound 790612] | 64
790618 (kA*kG*k[5mC]*dA*d[5mC]*dT*dA*d[5mC]*dA*dA*dT*dG*d[5mC]*kT*kA*kA; antisense) [compound 790618] | 24
